Data reported in patent US8541588B2, “Sulfonamide derivatives” (Pfizer Limited, priority 2009, dated 2013).

Molecular target: T1, Nav1.7 (or SCN9A) channel; HEK cells stably transfected with hSCN9A (Homo sapiens, UniProt Q15858)
T1 construct: expressed in transfected cells
Assay: Nav1.7 block, PatchXpress 7000 automated whole-cell voltage clamp, estimated IC50 (EIC50)
Format: cell-based
Conditions: estimated IC50; hSCN9A HEK cells, PatchXpress platform; Examples 283-814

T1 sequence (Q15858 whole entry): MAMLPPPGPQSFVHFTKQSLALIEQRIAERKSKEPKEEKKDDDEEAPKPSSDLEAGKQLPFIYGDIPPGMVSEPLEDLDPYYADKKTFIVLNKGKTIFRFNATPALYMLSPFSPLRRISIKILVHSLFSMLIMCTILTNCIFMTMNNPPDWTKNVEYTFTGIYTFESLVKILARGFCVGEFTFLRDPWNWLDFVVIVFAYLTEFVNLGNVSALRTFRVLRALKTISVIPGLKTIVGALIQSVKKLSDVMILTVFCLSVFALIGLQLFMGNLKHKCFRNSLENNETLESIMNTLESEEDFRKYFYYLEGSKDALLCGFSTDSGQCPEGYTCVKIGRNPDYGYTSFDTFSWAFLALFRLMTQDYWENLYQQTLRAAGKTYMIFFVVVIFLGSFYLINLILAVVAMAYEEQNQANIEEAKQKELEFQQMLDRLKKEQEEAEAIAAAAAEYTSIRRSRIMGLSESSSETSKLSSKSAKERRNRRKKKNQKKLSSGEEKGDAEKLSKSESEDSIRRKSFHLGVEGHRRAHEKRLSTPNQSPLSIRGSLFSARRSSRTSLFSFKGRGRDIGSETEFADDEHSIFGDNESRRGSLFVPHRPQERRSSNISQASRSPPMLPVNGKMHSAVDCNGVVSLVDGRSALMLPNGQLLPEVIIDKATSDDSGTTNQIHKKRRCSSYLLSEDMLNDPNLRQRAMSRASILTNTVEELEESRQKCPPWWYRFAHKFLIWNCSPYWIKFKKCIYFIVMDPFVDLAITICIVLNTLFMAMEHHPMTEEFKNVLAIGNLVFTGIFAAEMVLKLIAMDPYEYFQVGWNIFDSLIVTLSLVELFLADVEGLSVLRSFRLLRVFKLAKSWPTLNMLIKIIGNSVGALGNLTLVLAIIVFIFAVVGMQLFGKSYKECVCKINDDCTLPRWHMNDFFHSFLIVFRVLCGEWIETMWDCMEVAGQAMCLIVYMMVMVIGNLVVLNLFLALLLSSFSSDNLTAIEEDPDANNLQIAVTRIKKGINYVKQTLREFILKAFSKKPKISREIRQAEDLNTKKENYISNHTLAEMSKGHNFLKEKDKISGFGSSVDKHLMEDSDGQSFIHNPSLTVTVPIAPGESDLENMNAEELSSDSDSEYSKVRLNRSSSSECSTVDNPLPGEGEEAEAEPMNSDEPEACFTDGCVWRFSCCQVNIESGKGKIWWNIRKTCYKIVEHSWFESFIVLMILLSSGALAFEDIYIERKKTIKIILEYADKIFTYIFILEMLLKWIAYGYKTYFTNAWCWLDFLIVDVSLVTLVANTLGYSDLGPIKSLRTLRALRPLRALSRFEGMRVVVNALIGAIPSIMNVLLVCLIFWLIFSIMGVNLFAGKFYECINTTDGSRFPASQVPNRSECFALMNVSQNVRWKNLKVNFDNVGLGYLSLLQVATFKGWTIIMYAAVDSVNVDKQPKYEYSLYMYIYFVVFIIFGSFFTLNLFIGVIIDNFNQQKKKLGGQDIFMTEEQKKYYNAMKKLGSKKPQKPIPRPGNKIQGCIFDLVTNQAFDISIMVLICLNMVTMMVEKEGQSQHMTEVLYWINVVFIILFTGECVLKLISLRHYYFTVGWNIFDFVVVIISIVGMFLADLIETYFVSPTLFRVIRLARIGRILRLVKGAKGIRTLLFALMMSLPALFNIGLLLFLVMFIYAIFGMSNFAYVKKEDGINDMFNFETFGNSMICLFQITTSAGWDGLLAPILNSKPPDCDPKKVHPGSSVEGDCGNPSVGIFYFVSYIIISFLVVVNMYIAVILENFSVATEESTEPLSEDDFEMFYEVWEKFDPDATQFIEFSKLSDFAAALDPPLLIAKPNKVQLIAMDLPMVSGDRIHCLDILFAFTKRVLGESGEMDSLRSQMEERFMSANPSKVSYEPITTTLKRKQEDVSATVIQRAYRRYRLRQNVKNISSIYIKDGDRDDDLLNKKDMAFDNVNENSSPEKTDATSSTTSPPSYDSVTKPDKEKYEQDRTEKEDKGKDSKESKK

| IC50 [nM] | Structure (SMILES) |
| --- | --- |
| 20 | Cc1cc(-c2cc(C(F)(F)F)ccc2Oc2ccc(S(=O)(=O)Nc3ncns3)cc2C#N)ccn1 [Example 508, 3-cyano-4-[2-(2-methylpyridin-4-yl)-4-(trifluoromethyl)phenoxy]-N-1,2,4-thiadiazol-5-ylbenzenesulfonamide] |
| 31 | N#Cc1cccc(-c2cc(C(F)(F)F)ccc2Oc2ccc(S(=O)(=O)Nc3ncns3)cc2C#N)c1 [Example 509, 3-cyano-4-{[3′-cyano-5-(trifluoromethyl)biphenyl-2-yl]oxy}-N-1,2,4-thiadiazol-5-ylbenzenesulfonamide] |
| 77 | N#Cc1cc(S(=O)(=O)Nc2ncns2)ccc1Oc1ccc(Cl)cc1-c1ccnn1C(F)F [Example 510, 4-{4-chloro-2-[1-(difluoromethyl)-1H-pyrazol-5-yl]phenoxy}-3-cyano-N-1,2,4-thiadiazol-5-ylbenzenesulfonamide] |
| 8.4 | N#Cc1cc(S(=O)(=O)Nc2ncns2)ccc1Oc1ccc(Cl)cc1-c1cccc(CN)c1 [Example 511, 4-{[3′-(aminomethyl)-5-chlorobiphenyl-2-yl]oxy}-3-cyano-N-1,2,4-thiadiazol-5-ylbenzenesulfonamide] |
| 3400 | N#Cc1cc(S(=O)(=O)Nc2ncc(Br)s2)ccc1Oc1c(Br)cc(Br)cc1-c1ccccc1 [Example 512, N-(5-Bromo-1,3-thiazol-2-yl)-3-cyano-4-[(3,5-dibromobiphenyl-2-yl)oxy]benzenesulfonamide] |
| 1100 | Cn1nccc1-c1cc(Cl)ccc1Oc1ccc(S(=O)(=O)Nc2ccc(F)cn2)cc1F [Example 514, 4-[4-chloro-2-(1-methyl-1H-pyrazol-5-yl)phenoxy]-3-fluoro-N-(5-fluoropyridin-2-yl)benzenesulfonamide] |
| 1900 | Cc1nsc(NS(=O)(=O)c2ccc(Oc3ccc(Cl)cc3-c3ccnn3C)c(F)c2)n1 [Example 515, 4-[4-chloro-2-(1-methyl-1H-pyrazol-5-yl)phenoxy]-3-fluoro-N-(3-methyl-1,2,4-thiadiazol-5-yl)benzenesulfonamide] |
| 2200 | O=S(=O)(Nc1cscn1)c1cc(Cl)c(Oc2ccc(F)cc2-c2ccnn2CCO)cc1F [Example 517, 5-chloro-2-fluoro-4-{4-fluoro-2-[1-(2-hydroxyethyl)-1H-pyrazol-5-yl]phenoxy}-N-1,3-thiazol-4-ylbenzenesulfonamide] |
| >1000 | O=S(=O)(Nc1cscn1)c1cc(Cl)c(Oc2cc(C(F)(F)F)ccc2-c2cncnc2)cc1F [Example 518, 5-chloro-2-fluoro-4-[2-pyrimidin-5-yl-5-(trifluoromethyl)phenoxy]-N-1,3-thiazol-4-ylbenzenesulfonamide] |
| 1200 | CC(C)(C)n1nccc1-c1cc(F)ccc1Oc1cc(F)c(S(=O)(=O)Nc2cscn2)cc1Cl [Example 519, 4-[2-(1-tert-butyl-1H-pyrazol-5-yl)-4-fluorophenoxy]-5-chloro-2-fluoro-N-1,3-thiazol-4-ylbenzenesulfonamide] |
| >1000 | CC(C)(C)n1ccc(-c2cc(F)ccc2Oc2cc(F)c(S(=O)(=O)Nc3cscn3)cc2Cl)n1 [Example 520, 4-[2-(1-tert-butyl-1H-pyrazol-3-yl)-4-fluorophenoxy]-5-chloro-2-fluoro-N-1,3-thiazol-4-ylbenzenesulfonamide] |
| 2900 | O=S(=O)(Nc1cscn1)c1cc(Cl)c(Oc2ccc(F)cc2-c2c[nH]nn2)cc1F [Example 521, 5-chloro-2-fluoro-4-[4-fluoro-2-(1H-1,2,3-triazol-4-yl)phenoxy]-N-1,3-thiazol-4-ylbenzenesulfonamide] |
| 7300 | Cn1ccc(-c2cc(F)ccc2Oc2cc(F)c(S(=O)(=O)Nc3cscn3)cc2Cl)n1 [Example 522, 5-chloro-2-fluoro-4-[4-fluoro-2-(1-methyl-1H-pyrazol-3-yl)phenoxy]-N-1,3-thiazol-4-ylbenzenesulfonamide] |
| 2600 | Cn1nncc1-c1cc(F)ccc1Oc1cc(F)c(S(=O)(=O)Nc2cscn2)cc1Cl [Example 523, 5-chloro-2-fluoro-4-[4-fluoro-2-(1-methyl-1H-1,2,3-triazol-5-yl)phenoxy]-N-1,3-thiazol-4-ylbenzenesulfonamide] |
| 580 | Cn1nc(C(F)(F)F)cc1-c1ccc(Oc2cc(F)c(S(=O)(=O)Nc3cscn3)cc2Cl)c(C#N)c1 [Example 524, 5-chloro-4-{2-cyano-4-[1-methyl-3-(trifluoromethyl)-1H-pyrazol-5-yl]phenoxy}-2-fluoro-N-1,3-thiazol-4-ylbenzenesulfonamide] |
| 160 | Cn1nccc1-c1cc(F)c(F)cc1Oc1ccc(S(=O)(=O)Nc2nccs2)cc1C#N [Example 526, 3-cyano-4-[4,5-difluoro-2-(1-methyl-1H-pyrazol-5-yl)phenoxy]-N-1,3-thiazol-2-ylbenzenesulfonamide] |
| 140 | Cn1nc(C(F)(F)F)cc1-c1cccc(Oc2ccc(S(=O)(=O)Nc3nccs3)cc2C#N)c1F [Example 527, 3-cyano-4-{2-fluoro-3-[1-methyl-3-(trifluoromethyl)-1H-pyrazol-5-yl]phenoxy}-N-1,3-thiazol-2-ylbenzenesulfonamide] |

| IC50 [nM] | Structure (SMILES) |
| --- | --- |
| 740 | Cn1nccc1-c1cc(F)ccc1Oc1ccc(S(=O)(=O)Nc2ccncn2)cc1F [Example 528, 3-fluoro-4-[4-fluoro-2-(1-methyl-1H-pyrazol-5-yl)phenoxy]-N-pyrimidin-4-ylbenzenesulfonamide] |
| 230 | N#Cc1cc(S(=O)(=O)Nc2ncc(F)s2)ccc1Oc1ccc(Cl)c(Cn2ccnc2)c1 [Example 530, 4-[4-chloro-3-(1H-imidazol-1-ylmethyl)phenoxy]-3-cyano-N-(5-fluoro-1,3-thiazol-2-yl)benzenesulfonamide] |
| 1100 | COc1cccc(-c2cc(Oc3ccc(S(=O)(=O)Nc4ncc(F)s4)cc3C#N)ccc2Cl)c1 [Example 531, 4-[(6-chloro-3′-methoxybiphenyl-3-yl)oxy]-3-cyano-N-(5-fluoro-1,3-thiazol-2-yl)benzenesulfonamide] |
| 2900 | COCc1cccc(-c2cc(Oc3ccc(S(=O)(=O)Nc4ncc(F)s4)cc3C#N)ccc2Cl)c1 [Example 532, 4-{[6-chloro-3′-(methoxymethyl)biphenyl-3-yl]oxy}-3-cyano-N-(5-fluoro-1,3-thiazol-2-yl)benzenesulfonamide] |
| 780 | N#Cc1cc(S(=O)(=O)Nc2ncc(F)s2)ccc1Oc1ccc(Cl)c(Cn2ccnn2)c1 [Example 533, 4-[4-chloro-3-(1H-1,2,3-triazol-1-ylmethyl)phenoxy]-3-cyano-N-(5-fluoro-1,3-thiazol-2-yl)benzenesulfonamide] |
| 500 | N#Cc1cc(S(=O)(=O)Nc2ncc(F)s2)ccc1Oc1ccc(Cl)c(Cn2cccn2)c1 [Example 534, 4-[4-chloro-3-(1H-pyrazol-1-ylmethyl)phenoxy]-3-cyano-N-(5-fluoro-1,3-thiazol-2-yl)benzenesulfonamide] |
| 170 | Cn1nc(C(F)(F)F)cc1-c1ccc(Oc2ccc(S(=O)(=O)Nc3ncc(F)s3)cc2C#N)c(F)c1 [Example 535, 3-cyano-4-{2-fluoro-4-[1-methyl-3-(trifluoromethyl)-1H-pyrazol-5-yl]phenoxy}-N-(5-fluoro-1,3-thiazol-2-yl)benzenesulfonamide] |
| 220 | CCn1nc(C(F)(F)F)cc1-c1ccc(Oc2ccc(S(=O)(=O)Nc3ncc(F)s3)cc2C#N)cc1F [Example 536, 3-cyano-4-{4-[1-ethyl-3-(trifluoromethyl)-1H-pyrazol-5-yl]-3-fluorophenoxy}-N-(5-fluoro-1,3-thiazol-2-yl)benzenesulfonamide] |
| 25 | CCn1nc(C(F)(F)F)cc1-c1ccc(Oc2ccc(S(=O)(=O)Nc3ncc(F)s3)cc2C#N)c(F)c1 [Example 537, 3-cyano-4-{4-[1-ethyl-3-(trifluoromethyl)-1H-pyrazol-5-yl]-2-fluorophenoxy}-N-(5-fluoro-1,3-thiazol-2-yl)benzenesulfonamide] |
| 3400 | Cn1nccc1-c1ccc(Oc2ccc(S(=O)(=O)Nc3ncc(F)s3)cc2C#N)c(C#N)c1 [Example 538, 3-cyano-4-[2-cyano-4-(1-methyl-1H-pyrazol-5-yl)phenoxy]-N-(5-fluoro-1,3-thiazol-2-yl)benzenesulfonamide] |
| 4000 | CCn1nc(-c2ccc(Oc3ccc(S(=O)(=O)Nc4ncc(F)s4)cc3C#N)c(F)c2)cc1C(F)(F)F [Example 540, 3-cyano-4-{4-[1-ethyl-5-(trifluoromethyl)-1H-pyrazol-3-yl]-2-fluorophenoxy}-N-(5-fluoro-1,3-thiazol-2-yl)benzenesulfonamide] |
| 140 | COc1ccc(-c2ccnn2C)c(Oc2ccc(S(=O)(=O)Nc3nccs3)cc2C#N)c1 [Example 541, 3-cyano-4-[5-methoxy-2-(1-methyl-1H-pyrazol-5-yl)phenoxy]-N-1,3-thiazol-2-ylbenzenesulfonamide] |
| 66 | Cn1nccc1-c1ccc(F)cc1Oc1ccc(S(=O)(=O)Nc2nccs2)cc1C#N [Example 542, 3-cyano-4-[5-fluoro-2-(1-methyl-1H-pyrazol-5-yl)phenoxy]-N-1,3-thiazol-2-ylbenzenesulfonamide] |
| 66 | Cc1ccc(-c2ccnn2C)c(Oc2ccc(S(=O)(=O)Nc3nccs3)cc2C#N)c1 [Example 543, 3-cyano-4-[5-methyl-2-(1-methyl-1H-pyrazol-5-yl)phenoxy]-N-1,3-thiazol-2-ylbenzenesulfonamide] |
| 22 | Cn1nccc1-c1ccc(Cl)cc1Oc1ccc(S(=O)(=O)Nc2nccs2)cc1C#N [Example 544, 4-[5-chloro-2-(1-methyl-1H-pyrazol-5-yl)phenoxy]-3-cyano-N-1,3-thiazol-2-ylbenzenesulfonamide] |
| 23 | Cn1nccc1-c1cc(C2CC2)ccc1Oc1ccc(S(=O)(=O)Nc2nccs2)cc1C#N [Example 545, 3-cyano-4-[4-cyclopropyl-2-(1-methyl-1H-pyrazol-5-yl)phenoxy]-N-1,3-thiazol-2-ylbenzenesulfonamide] |
| 20 | Cc1[nH]ncc1-c1cc(Cl)ccc1Oc1ccc(S(=O)(=O)Nc2nccs2)cc1C#N [Example 546, 4-[4-chloro-2-(5-methyl-1H-pyrazol-4-yl)phenoxy]-3-cyano-N-1,3-thiazol-2-ylbenzenesulfonamide] |
